Literature values, collected in patent publication US10973875B2, “Medical agents and uses thereof” (LOKON PHARMA AB, priority 2014, dated 2021).

Settings: patients treated with gemcitabine

For `Nc1ccn([C@@H]2O[C@H](CO)[C@@H](O)C2(F)F)c(=O)n1` [gemcitabine], the “levels of TGF, Tregs and MDSCs” value is given as “significantly lower levels”.
